# From the PolyMetriX glass transition set
# ± gives the standard deviation of the reports.
row,glass transition temperature,Structure (SMILES)
1,266.00 °C,*c1ccc2c(c1)C(=O)N(c1c(CC)cc(Cc3cc(CC)c(N4C(=O)c5ccc(C(*)(C(F)(F)F)C(F)(F)F)cc5C4=O)c(CC)c3)cc1CC)C2=O (repeat unit)
2,178.00 °C,*CCN(CCOC(=O)Nc1ccc(C)c(NC(=O)O*)c1)c1ccc(/C=C2/NC(=O)NC2=O)cc1 (repeat unit)
3,238.00 °C,*c1cccc(Oc2cccc(Oc3cccc(N4C(=O)c5c(c(-c6ccccc6)c(-c6ccc(Oc7ccc(Oc8ccc(-c9c(-c%10ccccc%10)c%10c(c(-c%11ccccc%11)c9-c9ccccc9)C(=O)N(*)C%10=O)cc8)cc7)cc6)c(-c6ccccc6)c5-c5ccccc5)C4=O)c3)c2)c1 (repeat unit)
4,299.50 °C,*c1ccc(Oc2c(C)cc(Cc3cc(C)c(Oc4ccc(-n5c(=O)c6cc7c(=O)n(*)c(=O)c7cc6c5=O)cc4)c(C)c3)cc2C)cc1 (repeat unit)
5,200.00 °C,*CC(*)(C)C(=O)OCC1CC(NC(=O)C2CC(NC(=O)OC(C)(C)C)CN2C(=O)OC(C)(C)C)CN1C(=O)C1CC(NC(=O)OC(C)(C)C)CN1C(=O)OC(C)(C)C (repeat unit)
6,147.00 °C,*Oc1cccc(NC(=O)c2ccc(Oc3ccc(C(C)(C)c4cccc(C(C)(C)c5ccc(Oc6ccc(C(=O)Nc7ccc(*)cc7)cc6)cc5)c4)cc3)cc2)c1 (repeat unit)
7,285.00 °C,*Oc1ccc(C2(c3ccc(OC(=O)c4ccc(C(*)=O)cc4)cc3)c3ccccc3-c3ccccc32)cc1 (repeat unit)
8,250.00 °C,*/C(=C(/*)c1ccc([Si](C(C)C)(C(C)C)C(C)C)cc1)c1ccccc1 (repeat unit)
9,140.00 °C,*c1ccc(Oc2ccc(C(=O)c3cccc(C(=O)c4ccc(Oc5ccc(-c6c7c(c(*)c8ccccc68)C(=O)N(CCCCCCCCCCCC)C7=O)cc5)cc4)c3)cc2)cc1 (repeat unit)
10,244.00 °C,*c1ccc(Oc2ccc(C(c3ccc(Oc4ccc(N5C(=O)c6ccc(Oc7c(C)cc(C(C)(C)c8cc(C)c(Oc9ccc%10c(c9)C(=O)N(*)C%10=O)c(C)c8)cc7C)cc6C5=O)cc4)cc3)(C(F)(F)F)C(F)(F)F)cc2)cc1 (repeat unit)
11,73.00 °C,*O[Si](C)(C)COC(=O)CCCCCCCCC(=O)Oc1ccc(S(=O)(=O)c2ccc(Oc3ccc(/C=C4\CC/C(=C\c5ccc(Oc6ccc(S(=O)(=O)c7ccc(OC(=O)CCCCCCCCC(=O)OC[Si](*)(C)C)cc7)cc6)cc5)C4=O)cc3)cc2)cc1 (repeat unit)
12,10.00 °C,*O[Si](*)(C)CCCCCCOc1ccc(-c2ccc(C#N)cc2)cc1 (repeat unit)
13,134.00 °C,*Oc1ccc(Oc2ccc(C(=O)c3ccc(*)cc3)cc2)cc1-c1cccc(C(F)(F)F)c1 (repeat unit)
14,141.00 °C,*CCCCCCN1C(=O)c2ccc(-c3ccc(-c4ccc5c(c4)C(=O)N(*)C5=O)cc3)cc2C1=O (repeat unit)
15,350.00 °C,*C(=O)c1ccc(C(=O)N2CC(C)N(*)CC2C)cc1 (repeat unit)
16,66.00 °C,*CC(*)c1ccc(C(=O)OCCCCCC)cc1 (repeat unit)
17,206.40 °C,*c1ccc2c(c1)C(=O)N(c1ccc(Oc3ccc(C(=O)c4cccc(C(=O)c5ccc(Oc6ccc(N7C(=O)c8ccc(C(*)(C(F)(F)F)C(F)(F)F)cc8C7=O)cc6C(F)(F)F)cc5)n4)cc3)c(C(F)(F)F)c1)C2=O (repeat unit)
18,244.00 °C,*c1cccc(C(=O)Nc2ccc(Oc3ccc(Oc4ccc(Oc5ccc(NC(=O)c6cccc(N7C(=O)c8ccc(-c9ccc%10c(c9)C(=O)N(*)C%10=O)cc8C7=O)c6)cc5)cc4)cc3)cc2)c1 (repeat unit)
19,176.5 °C,*c1ccc(Sc2ccc(Sc3ccc(Sc4ccc(N5C(=O)c6ccc(Sc7ccc(Sc8ccc(Sc9ccc%10c(c9)C(=O)N(*)C%10=O)cc8)cc7)cc6C5=O)cc4)cc3)cc2)cc1 (repeat unit)
20,90.00 °C,*CC(O)COc1ccc(C(C)(C)c2ccc(OCC(O)COc3cccc(NC(=O)CCCCCCCCCCC(=O)Nc4cccc(O*)c4)c3)cc2)cc1 (repeat unit)
21,150.00 °C,*c1ccc2c(c1)Sc1cc(-c3ccc(-c4ccc(*)s4)s3)ccc1N2CCCCCCCCCCCC (repeat unit)
22,259.00 °C,*c1ccc(Cc2ccc(N3C(=O)c4ccc(Oc5ccc(Oc6ccc7c(c6)C(=O)N(*)C7=O)cc5)cc4C3=O)cc2)cc1 (repeat unit)
23,281.00 °C,*Oc1c(Cl)cc(C2(c3cc(Cl)c(OC(*)=O)c(Cl)c3)CC3CC2C2CCCC32)cc1Cl (repeat unit)
24,281.00 °C,*Oc1ccc(S(=O)(=O)c2ccc(Oc3ccc(S(=O)(=O)c4ccc(-c5ccc(-c6ccc(S(=O)(=O)c7ccc(*)cc7)cc6)cc5)cc4)cc3)cc2)cc1 (repeat unit)
25,221.00 °C,*c1ccc(-c2nc3cc(C)ccc3o2)c(*)c1 (repeat unit)
26,182.00 °C,*Oc1c(F)c(F)c(S(=O)(=O)c2c(F)c(F)c(Oc3ccc(C(c4ccc(*)cc4)(C(F)(F)F)C(F)(F)F)cc3)c(F)c2F)c(F)c1F (repeat unit)

row,glass transition temperature,Structure (SMILES)
1,121.00 °C,*CCN(CCOC(=O)Nc1ccc(C)c(NC(=O)O*)c1)c1ccc(/C=C/c2ccc([N+](=O)[O-])cc2)cc1 (repeat unit)
2,292.00 °C,*C(=O)Nc1cccc(NC(=O)c2cccc(NC(=O)c3ccc(-c4nc5cc(*)ccc5[nH]4)cc3)c2)c1 (repeat unit)
3,224.50 °C,*NNC(=O)c1ccccc1C(=O)NCCCCCCNC(=O)c1ccccc1C(*)=O (repeat unit)
4,76.00 °C,*Oc1ccc(/N=C/CCC/C=N/c2ccc(OC(=O)Nc3ccc(Cc4ccc(NC(*)=O)cc4)cc3)cc2)cc1 (repeat unit)
5,80.00 °C,*CC(C)(C)C1C(=O)N(CCCC)C(=O)C1* (repeat unit)
6,345.00 °C,*c1ccc(-c2nc3ccc(S(=O)(=O)c4ccc5nc(*)c(-c6ccccc6)nc5c4)cc3nc2-c2ccccc2)cc1 (repeat unit)
7,87.50 °C,*CCCCCCCCCCCCN1C(=O)c2ccc(C(=O)c3ccc4c(c3)C(=O)N(*)C4=O)cc2C1=O (repeat unit)
8,50.00 °C,*CC(*)(C)C(=O)OCCCCCC(=O)Oc1ccc(OC(=O)c2ccc(OCCCCC)cc2)cc1 (repeat unit)
9,54.00 °C,*CC(*)c1ccc(C(O)CCN2CCCCC2)cc1 (repeat unit)
10,275.00 °C,*Nc1ccc(NC(=O)c2ccc(C(=O)c3ccc(C(*)=O)c(C(=O)OCC)c3)cc2C(=O)OCC)cc1 (repeat unit)
11,363.00 °C,*C1CCC(N2C(=O)c3ccc(S(=O)(=O)c4ccc5c(c4)C(=O)N(*)C5=O)cc3C2=O)CC1 (repeat unit)
12,181.00 °C,*C1C(=O)N(c2ccccc2C(=O)OCCCC)C(=O)C1* (repeat unit)
13,223.2 °C,*c1cccc(Oc2ccc(S(=O)(=O)c3ccc(Oc4cccc(-n5c(=O)c6cc7c(=O)n(*)c(=O)c7cc6c5=O)c4)cc3)cc2)c1 (repeat unit)
14,46.00 °C,*Oc1ccc(CC(NC(=O)CCc2ccc(OC(=O)CCCCC(*)=O)cc2)C(=O)OCCCC)cc1 (repeat unit)
15,175.00 °C,*CCCC1(CCCNC(=O)c2cccc(C(=O)N*)c2)c2ccccc2-c2ccccc21 (repeat unit)
16,76.00 °C,*CCOCCOC(=O)/C=C/C(=O)NCCCCCCNC(=O)/C=C/C(=O)O* (repeat unit)
17,53.40 °C,*CCCCCCNC(=O)CCCCC(=O)NCC(=O)N* (repeat unit)
18,312.00 °C,*C(=O)Nc1ccc(Sc2ccc(NC(=O)c3ccc4c(c3)C(=O)N(c3ccc(Oc5ccc(C6(c7ccc(Oc8ccc(N9C(=O)c%10ccc(*)cc%10C9=O)cc8)cc7)NC(=O)c7ccccc76)cc5)cc3)C4=O)cc2)cc1 (repeat unit)
19,152.00 °C,*CC(*)(C)C(=O)Oc1ccc(C(=O)/C=C/c2ccc(OCc3ccccc3)cc2)cc1 (repeat unit)
20,224.00 °C,*c1ccc(N(c2ccc(C#N)cc2)c2ccc(N3C(=O)c4ccc(Oc5ccc(C(C)(C)c6ccc(C(C)(C)c7ccc(Oc8ccc9c(c8)C(=O)N(*)C9=O)cc7)cc6)cc5)cc4C3=O)cc2)cc1 (repeat unit)
21,305.00 °C,*C(=O)c1ccc2c(c1)C(=O)N(c1ccc(Cl)c(N3C(=O)c4ccc(*)cc4C3=O)c1)C2=O (repeat unit)
22,281.00 °C,*Oc1ccc(NC(=O)NC2CC(C)(C)CC(C)(CNC(=O)Nc3ccc(*)c(-c4ccc(Oc5ccccc5)cc4)c3)C2)cc1-c1ccc(Oc2ccccc2)cc1 (repeat unit)
23,286.00 °C,*c1ccc2c(c1)C(=O)N(c1ccc(C(=O)Nc3ccc(Oc4cccc(Oc5ccc(NC(=O)c6ccc(N7C(=O)c8ccc(C(*)(C(F)(F)F)C(F)(F)F)cc8C7=O)cc6)cc5)c4)cc3)cc1)C2=O (repeat unit)
24,276.00 °C,*c1ccc(C(c2ccc(N3C(=O)c4ccc(Oc5cccc6c(Oc7ccc8c(c7)C(=O)N(*)C8=O)cccc56)cc4C3=O)cc2)(C(F)(F)F)C(F)(F)F)cc1 (repeat unit)
25,134.00 °C,*/C=C/c1nc(/C=C/c2ccc3c(c2)c2cc(*)ccc2n3CCCCCC)c(C#N)c(/C=C/c2ccc(N(c3ccccc3)c3ccccc3)cc2)c1C#N (repeat unit)

row,Structure (SMILES),glass transition temperature
1,*CCOC(=O)CC(C)O* (repeat unit),-37.10 °C
2,*CC(*)C(=O)OCCc1ccccc1 (repeat unit),-3.00 °C
3,*CC(O)COc1ccc(O*)cc1 (repeat unit),60.00 °C
4,*CC(CS(=O)(=O)CC)O* (repeat unit),57.00 °C
5,*CCCCCCOC(=O)C(CCCCCCP(=O)(OCC)OCC)C(=O)OCCCCCCOc1ccc(-n2on2-c2ccc(O*)cc2)cc1 (repeat unit),9.00 °C
6,*CC(*)(C)C(=O)OC(C)C (repeat unit) [Poly(isopropyl methacrylate)],83.92 ± 1.5 °C
7,*Oc1cccc(*)c1 (repeat unit),53.00 °C
8,*/C(Cl)=C(/*)c1ccccc1 (repeat unit),215.00 °C
9,*OP(=O)(Oc1ccccc1)Oc1cccc2c(*)cccc12 (repeat unit),138.00 °C
